Data set [1] relates to prostate cancer (LNCaP and PC-3) and prostate cancer (RC77 T/E and MDA PCa 2b) cell lines. Nature of the data set: BrdU-labeling cell proliferation assay. It counts as cell-based, human. The note with it: PC-3, RC77 T/E and MDA PCa 2b, 48 h transfection, vs NS. As for the experimental part: […] RC77 T/E, a primary prostate cancer cell line derived from a patient, was kindly provided by Dr. Johng Rhim at Center for Prostate Disease Research (CPDR) in Rockville, MD. LNCaP and PC-3 were served as prostate cancer cell line models, and RC77 T/E and MDA PCa 2b were served as prostate cancer cell models in the study. The cells were cultured in specific cell culture media, LNCaP was cultured in RPMI with 10% fetal bovine serum (FBS), PC-3 was cultured in DMEM with 10% FBS, MDA PCa 2b were cultured in BRFF-HPC1 with 20% FBS and RC77 T/E was cultured in Keratinocyte SFM with Human Recombinant Epidermal Growth Factor (EGF 1-53) and Bovine Pituitary Extract (BPE). Cells were maintained at 37° C. in a 5% CO2 incubator. LNCaP, PC-3 and MDA PCa 2b cells were seeded at density 3×10^4 cells/well in 6-well plates. RC77 T/E cells were seeded at density 5×10^4 cells/well in 6-well plates. […]
LNCaP, PC-3, RC77 T/E and MDA PCa 2b cells were seeded at density 3×10^4 cells/well in 6-well culture plates. […] 100 μL of stop solution was used to stop further reaction and followed by checking absorbance at dual wavelengths of 450 nm and 540 nm using Multiskan FC microplate photometer (Thermo Scientific).

The next data set relates to mTOR and pmTOR. Nature of the data set: Immunofluorescence of mTOR and pmTOR in prostate cancer cell lines transfected with NS or miR-99b-5p mimic. It counts as cell-based, human. The note with it: vs NS. The text has this:
The human cell lines used in the study included: 22Rv1, LNCaP, PC-3, RC77 T/E and MDA PCa 2b (prostate cancer cell lines), MDA MB 231 and MCF-7 (breast cancer cell lines), HT-29 and SW620 (colon cancer cell lines), A549 and H1299 (lung cancer cell lines). RWPE-1, HMEC, FHC, and BEAS-2B were used as normal control cell lines for prostate, breast, colon, and lung, respectively. Note that 22Rv1 is a castration-resistant […] prostate cancer cell line, while LNCaP and PC-3 were derived from lymph node and bone metastasis of […] prostate cancer patients, respectively. RC77 T/E was derived from a primary prostate cancer patient, and MDA PCa 2b was derived from bone metastasis of an prostate cancer patient. The cell lines described were used as in vitro cell models to evaluate the functional roles of miR-99b-5p/MTOR pairing in the […] prostate cancer, African American prostate cancer and solid tumors in general. The cells were grown in specific cell culture media described as follows: 22Rv1, LNCaP, MCF-7 and H1299 were cultured in RPMI-1640 with 10% fetal bovine serum (FBS), PC-3, A549 and FHC were cultured in DMEM with 10% FBS, RC77 T/E was cultured in Keratinocyte SFM with human recombinant epidermal growth factor (EGF) and bovine pituitary extract (BPE), MDA PCa 2b were cultured in BRFF-HPC1 with 20% FBS, HT-29 was cultured in McCory's with 10% FBS, SW620 and MDA MB 231 were cultured in L-15 with 10% FBS, HMEC was cultured in mammary epithelial cell basal medium with supplements, and BEAS-2B was cultured in BEBM base medium with BEBM supplement kit. Cells were maintained at 37° C. in a 5% CO2 incubator.
The 22Rv1, LNCaP, PC-3, MDA PCa 2b, MCF7, H1299, A549, HT-29, SW620, MDA MB-231, HMEC and BEAS-2B cells were seeded at a density of 3×10^5 cells/well in 6-well plates. RC77 T/E cells were seeded at a density of 5×10^5 cells/well in 6-well plates. The cells were grown for 24 h and then transfected with nonsense/scrambled RNA (NS) and miR-99b-5p mimic (Ambion) using DharmaFECT4 transfection reagent (Dharmacon). After 24 h, fresh media were applied to replace the transfection reagent-containing media, then the cells were incubated for an additional 24 h.
In this process, 4×10^4 cells were seeded on cover slip and allowed to adhere for 24 h in 5% CO2 incubator at 37° C. All the cells were subjected to immunofluorescence assays 48 h following transfection. Briefly, cells were washed with 1×PBS, fixed in 4% paraformaldehyde, and permeabilized with 0.1% Triton X-100. Cells were then blocked for 1 h with 2% BSA in 1×PBS. […] All labeled and/or prepared cells mounted on glass slides and were visualized by fluorescence microscopy (Olympus). […]

Where [2] appears, read: 22Rv1, LNCaP, PC-3, RC77 T/E, MDA PCa 2b, 48 h following transfection.
[3] abbreviates: all European American and African American prostate cancer cell lines.

In the case of “miR-99b-5p mimic: miRNA mimic of miR-99b-5p (SEQ ID NO: 2, CACCCGUAGAACCGACCUUGCG), purchased from Ambion (listed as RNA, chemistry not given here; listed as Homo sapiens)”, the “cell proliferation (BrdU labeling)” value in data set [1] is reported as “reduction”. In addition, in the data set with mTOR and pmTOR (setting [2]), the “pmTOR signals (immunofluorescence)” value was “generalized reduction” and the “total mTOR signals (immunofluorescence)” value was “generalized reduction”. Moreover, in the data set on mTOR and pmTOR (setting [3]), the “cytoplasmic pmTOR signals (immunofluorescence quantification)” value is on record as “increased” and the “nuclear pmTOR signals (immunofluorescence quantification)” value was “reduced significantly”.

The record behind these values is patent US20240287614A1, “RECIPROCAL MICRORNA-MRNA PAIRINGS AS BIOMARKERS AND THERAPEUTIC TARGETS IN CANCER” (UNIVERSITY OF MARYLAND, EASTERN SHORE, priority 2023, published 2024).
